Results published in patent US5610319A, “Compound useful as antiproliferative agents and GARFT inhibitors” (Agouron Pharmaceuticals, Inc., priority 1995, dated 1997).

Columns and labels:
GARFT = settings: cited from earlier work
L1210 = test: In vitro growth inhibition, L1210, MTT, Example 2; assay type: cell-based; settings: Mus musculus, Continuous (72-hour) exposure, mean IC50, read-out: IC50 Cell Culture L1210
Protocol: All cultures were maintained at 37° C., 5% air-CO2 in a humidified incubator.
Stock solutions of the inhibitors were prepared in 10 mM sodium bicarbonate in water and stored in 1 ml aliquots at -20° C. for cell culture experiments. Cell growth inhibition was measured by a modification of the method of Mosmann, J. Immunol. Methods 65 (1983), 55-63.
Mid-log phase cells of each cell line were diluted to 18,500 cells/ml in fresh RPMI growth medium (Mediatech, Washington, DC) supplemented with dialyzed fetal calf serum (Hyclone Laboratories Inc., Logan, Utah) and then aliquotted into columns 2 through 12 of 96-well microtiter plates. Column 1 was filled with the same volume ([…]) of fresh medium, without cells, for use as a blank. The plates were then placed in a 37° C., 5% air-CO2 incubator. After 1 to 4 hours, plates were removed from the incubator followed by addition of Compound (21) at 10×final concentration, […] in binary dilutions, to columns 12 to 4. […] The extent of metabolized MTT was measured spectrophotometrically at 540 nm on a Molecular Devices Vmax™ kinetic microplate reader. The concentration of drug required to reduce cell growth by 50% as measured by MTT metabolism was determined by interpolation between the O.D. (minus blank) immediately above and below 50% of control O.D. (minus blank). […]

6C3HED lymphosarcoma = test: In vivo antitumor activity, 6C3HED lymphosarcoma; design: species or system C3H/He female mice; settings: intraperitoneal, once daily for nine days; for % Inhibition: tumor mass day 11
Protocol: (§1) On day zero, 2 mm^2 trocar fragments of 6C3HED lymphosarcoma were implanted subcutaneously in the axillary region into groups of six C3H/He female mice. Starting on day 1, the test compound was administered intraperitoneally in 40% Encapsin given once daily for nine days. Control animals received identical treatment without test compound. The percentage inhibition given in Table 5 below was calculated by comparing the mass of the control tumors (receiving diluent only) on day 11 to those of animals receiving test compound.

[1] = test system: C3H/BA mammary adenocarcinoma; test: In vivo antitumor activity, C3H/BA mammary adenocarcinoma; design: species or system C3H/He female mice; settings: intraperitoneal, once daily for nine days, tumor mass day 14
Protocol: as §1, with “C3H/BA mammary adenocarcinoma” for “6C3HED lymphosarcoma”, “percentage of” for “percentage”, “inhibition” for “inhibition given in Table 5 below”, “14” for “11”

**Q.** For `Nc1nc2c(c(=O)[nH]1)CC(CCc1ccc(C(=O)N[C@@H](CCC(=O)O)C(=O)O)cc1)CN2` (some centres unmarked) [5,10-dideazatetrahydrofolic acid], which GARFT inhibition (GARFT) is on record?
**A.** specific tight binding inhibitor of GARFT

**Q.** With `Nc1nc2c(c(=O)[nH]1)SC(CCc1ccc(C(=O)N[C@@H](CCC(=O)O)C(=O)O)s1)CN2` (stereo partly drawn) [Compound 21, 4-[2-(2-Amino-4-oxo-4,6,7,8-tetrahydro-3H-pyrimido[5,4-6][1,4]thiazin-6-yl)-ethyl]-2,5-thienoylamino-L-glutamic acid] as the molecule, how does the IC50 (L1210) read?
**A.** 16 nM

**Q.** And the “% Inhibition” value (6C3HED lymphosarcoma; 12.5 mg/kg)?
**A.** 100%

**Q.** And the “% Inhibition” value (6C3HED lymphosarcoma; 25 mg/kg)?
**A.** 100%

**Q.** What about the “% Inhibition (given as toxic)” value (6C3HED lymphosarcoma; 50 mg/kg, day 11) of the same molecule?
**A.** toxic

**Q.** What about the “% Inhibition” value ([1]; 5 mg/kg) of the same molecule?
**A.** 16%

**Q.** What about the “% Inhibition” value ([1]; 10 mg/kg) of the same molecule?
**A.** 84%

**Q.** And the “% Inhibition” value ([1]; 20 mg/kg)?
**A.** 100%
